For 14 compounds, IC50 and EC50 results are on record in ChEMBL document CHEMBL4699640, “l-Tryptophan Induces a Marine-Derived Fusarium sp. to Produce Indole Alkaloids with Activity against the Zika Virus” (J Nat Prod, 2020).

A word on the IC50: it is the concentration at which inhibition is half-maximal. Broadly, the EC50 is the concentration giving half of the maximal effect.

The first test relates to MDA-MB-231. Nature of the test: Cytotoxicity against human MDA-MB-231 cells assessed as reduction in cell viability by MTT assay. It counts as cell-based.
Conditions: not given; call rule not given here
(In general: Tetrazolium assays rely on reduction of a dye to a coloured formazan, in cell work by metabolically active cells.)
Regarding `CC(C)=CCC[C@]1(C)[C@@H](O)CC[C@@]2(C)[C@H]1CC[C@H]1Cc3c([nH]c4ccccc34)[C@@]12C` [EMINDOLE SB], the IC50 amounted to 3.2 µM.

A further test concerns Zika virus. Put plainly: Antiviral activity against Zika virus Z16019 infected in human A549 cells assessed as reduction in viral titer preincubated for 1 hr followed by compound washout and subsequent compound addition without virus and measured after 48 hrs by plaque assay. The format is functional, organism-based. The following applies: Zika virus, Z16019, A549; read-out: EC50.
As to `CC(C)=C[C@H]1C[C@]2(C)[C@H](CC[C@@]3(C)[C@H]2CC[C@H]2Cc4c([nH]c5ccccc45)[C@@]23C)O1`, the EC50 was 4.2 µM.

In the case of `C#C[C@@]1(O)[C@H](O)[C@@H](CO)O[C@H]1n1ccc2c(N)ncnc21`, the half-maximal effective concentration (EC50) is 15 µM.

As to `O=C(C(=O)c1c[nH]c2ccccc12)c1c[nH]c2ccccc12`, the EC50 amounted to 5 µM.

For the compound `O=C1c2ccccc2NC1(c1c[nH]c2ccccc12)c1c[nH]c2ccccc12`, the EC50 was 22 µM.

As for `CC(C)=C[C@H]1C[C@]2(C)[C@H](CC[C@@]3(C)[C@H]2CC[C@H]2CC(=O)c4ccccc4NC(=O)O[C@@]23C)O1`, the EC50 is 12 µM.

For `COC(=O)Cc1c(-c2cc3ccccc3[nH]2)[nH]c2ccccc12`, the EC50 is 50 µM.

In the case of `CC(=O)OCC(=O)O[C@H]1CC[C@@]2(C)[C@@H](CC[C@H]3Cc4c([nH]c5ccccc45)[C@@]32C)[C@]1(C)CCC=C(C)C`, the EC50 is 7.5 µM.

Turning to `O=C(Cc1c[nH]c2ccccc12)OCCc1c[nH]c2ccccc12`, the 50% effective concentration (EC50) was 38 µM.

`CC(=O)C(C)(c1c[nH]c2ccccc12)c1c[nH]c2ccccc12`: the EC50 was found to be 18 µM.

Take `CC(C)=C[C@H]1C[C@]2(C)[C@H](CC[C@@]3(C)[C@H]2CC[C@H]2CC(=O)c4ccccc4NC(=O)[C@@]23C)O1` [ASPORYZIN A]: the EC50 was 18 µM.

The test is the same for the next values; noted with them: a549.
Consider `C[S+]([O-])CCC(c1c[nH]c2ccccc12)c1c[nH]c2ccccc12` (stereo unspecified), for which the EC50 entry is listed as “Not Active”.

Consider `Nc1ccccc1CC(c1c[nH]c2ccccc12)c1c[nH]c2ccccc12`, for which the EC50 result is “Not Active”.

As to `CC(C)=CCC[C@]1(C)[C@@H](O)CC[C@@]2(C)[C@H]1CC[C@H]1Cc3c([nH]c4ccccc34)[C@@]12C` [EMINDOLE SB], the EC50 entry is given as “Not Active”.

The subject of another test is A549. Put plainly: Cytotoxicity against human A549 cells assessed as reduction in cell viability by MTT assay. It counts as cell-based.
Conditions: not given
Consider `O=C(c1c[nH]c2ccccc12)c1nccc2c1[nH]c1ccccc12`, for which the IC50 came to 6.3 µM.

On to `CC(C)=CCC[C@]1(C)[C@@H](O)CC[C@@]2(C)[C@H]1CC[C@H]1Cc3c([nH]c4ccccc34)[C@@]12C` [EMINDOLE SB], for which the IC50 worked out at 4.4 µM.
